Assays:
[1] = target: JAK 1 (Homo sapiens (Human), UniProt P23458); experiment: Biochemical potency on JAK1, TR-FRET LANCE Ultra kinase assay (compounds 1-92); conditions: ATP at Km, read-out: JAK1 inhibitory activity (pIC50 class) (converted)
How it was run: (§1)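 TR-FRET (LANCE Ultra) phosphorylation of ULight-JAK-1 peptide, ATP at Km: JAK1/JAK2/JAK3/TYK2 peptide 30/50/20/10 nM, ATP 20/0.7/0.2/12 μM, enzyme 0.15/0.083/0.025/0.144 ng/μL. 11-point 5-fold series from 20 μM; 1.5 h RT, EDTA stop, Eu-anti-pTyr detection 1 h; IC50 by variable-slope fit.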

[2] = target: JAK 2 (Homo sapiens (Human), UniProt O60674); experiment: Biochemical potency on JAK2, TR-FRET LANCE Ultra kinase assay (compounds 1-92); conditions: ATP at Km, read-out: JAK2 inhibitory activity (pIC50 class) (converted)
How it was run: as §1

[3] = target: JAK 3 (Homo sapiens (Human), UniProt P52333); experiment: Biochemical potency on JAK3, TR-FRET LANCE Ultra kinase assay (compounds 1-92); conditions: ATP at Km, read-out: JAK3 inhibitory activity (pIC50 class) (converted)
How it was run: as §1

[4] = target: TYK2 (Homo sapiens (Human), UniProt P29597); experiment: Biochemical potency on Tyk2, TR-FRET LANCE Ultra kinase assay (compounds 1-92); conditions: ATP at Km, read-out: Tyk2 inhibitory activity (pIC50 class) (converted)
How it was run: as §1

JAK 1, sequence (P23458 whole entry): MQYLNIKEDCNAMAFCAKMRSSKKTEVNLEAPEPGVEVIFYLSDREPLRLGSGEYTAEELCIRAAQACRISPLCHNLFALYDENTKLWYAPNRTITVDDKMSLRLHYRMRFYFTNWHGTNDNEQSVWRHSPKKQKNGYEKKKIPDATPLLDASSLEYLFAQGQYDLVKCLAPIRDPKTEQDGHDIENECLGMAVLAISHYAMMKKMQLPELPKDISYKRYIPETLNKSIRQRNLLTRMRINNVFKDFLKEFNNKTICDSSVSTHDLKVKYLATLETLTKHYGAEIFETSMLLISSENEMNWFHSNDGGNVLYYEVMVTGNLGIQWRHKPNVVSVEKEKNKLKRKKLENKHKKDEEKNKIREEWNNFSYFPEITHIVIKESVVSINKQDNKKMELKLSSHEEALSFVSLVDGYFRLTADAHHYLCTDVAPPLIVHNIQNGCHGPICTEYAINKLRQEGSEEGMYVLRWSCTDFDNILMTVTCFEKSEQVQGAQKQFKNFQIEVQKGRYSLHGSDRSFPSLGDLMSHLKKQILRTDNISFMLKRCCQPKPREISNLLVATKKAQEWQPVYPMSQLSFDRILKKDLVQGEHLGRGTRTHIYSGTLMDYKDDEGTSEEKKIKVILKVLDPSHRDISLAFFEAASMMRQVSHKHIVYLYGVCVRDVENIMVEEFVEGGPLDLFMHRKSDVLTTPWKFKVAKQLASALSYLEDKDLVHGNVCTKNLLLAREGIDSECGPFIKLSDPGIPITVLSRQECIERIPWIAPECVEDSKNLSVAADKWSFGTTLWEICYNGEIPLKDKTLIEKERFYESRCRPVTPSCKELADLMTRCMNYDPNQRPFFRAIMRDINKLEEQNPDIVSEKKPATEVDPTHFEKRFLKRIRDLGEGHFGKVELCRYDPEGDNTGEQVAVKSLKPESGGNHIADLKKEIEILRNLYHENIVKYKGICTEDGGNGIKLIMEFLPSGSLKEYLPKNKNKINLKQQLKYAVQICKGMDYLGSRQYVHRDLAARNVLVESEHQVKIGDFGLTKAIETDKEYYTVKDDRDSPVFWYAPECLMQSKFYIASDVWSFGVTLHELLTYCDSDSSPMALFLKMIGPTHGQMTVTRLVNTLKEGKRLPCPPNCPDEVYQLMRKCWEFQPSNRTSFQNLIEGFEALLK
JAK 3, sequence (P52333 whole entry): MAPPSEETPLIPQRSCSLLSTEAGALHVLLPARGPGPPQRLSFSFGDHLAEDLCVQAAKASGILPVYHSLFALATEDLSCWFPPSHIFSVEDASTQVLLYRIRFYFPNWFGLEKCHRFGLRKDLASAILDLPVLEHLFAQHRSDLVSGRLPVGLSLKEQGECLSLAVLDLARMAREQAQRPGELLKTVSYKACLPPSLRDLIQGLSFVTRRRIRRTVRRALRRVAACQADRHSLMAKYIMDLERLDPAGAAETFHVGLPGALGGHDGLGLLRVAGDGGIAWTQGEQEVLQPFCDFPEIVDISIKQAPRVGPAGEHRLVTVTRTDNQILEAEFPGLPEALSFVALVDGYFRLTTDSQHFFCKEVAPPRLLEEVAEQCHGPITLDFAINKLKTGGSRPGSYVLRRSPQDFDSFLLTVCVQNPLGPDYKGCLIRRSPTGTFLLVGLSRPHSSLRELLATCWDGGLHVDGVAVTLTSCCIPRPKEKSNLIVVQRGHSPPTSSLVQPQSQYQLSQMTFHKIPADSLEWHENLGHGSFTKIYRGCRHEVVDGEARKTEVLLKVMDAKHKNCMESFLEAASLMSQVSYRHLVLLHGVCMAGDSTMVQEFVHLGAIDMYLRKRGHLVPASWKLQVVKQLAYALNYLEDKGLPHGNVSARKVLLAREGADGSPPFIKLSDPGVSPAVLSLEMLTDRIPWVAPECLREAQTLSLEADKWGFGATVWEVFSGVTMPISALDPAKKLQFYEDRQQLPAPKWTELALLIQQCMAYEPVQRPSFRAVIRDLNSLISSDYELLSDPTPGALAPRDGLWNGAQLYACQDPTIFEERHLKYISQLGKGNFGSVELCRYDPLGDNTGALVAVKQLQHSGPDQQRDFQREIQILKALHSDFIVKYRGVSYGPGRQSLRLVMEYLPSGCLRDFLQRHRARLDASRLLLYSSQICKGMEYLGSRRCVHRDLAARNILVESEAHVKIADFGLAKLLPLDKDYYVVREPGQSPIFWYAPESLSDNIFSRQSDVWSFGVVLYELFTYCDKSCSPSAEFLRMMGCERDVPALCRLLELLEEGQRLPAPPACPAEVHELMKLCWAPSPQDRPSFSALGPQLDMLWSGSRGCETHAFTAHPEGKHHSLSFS
TYK2, sequence (P29597 whole entry): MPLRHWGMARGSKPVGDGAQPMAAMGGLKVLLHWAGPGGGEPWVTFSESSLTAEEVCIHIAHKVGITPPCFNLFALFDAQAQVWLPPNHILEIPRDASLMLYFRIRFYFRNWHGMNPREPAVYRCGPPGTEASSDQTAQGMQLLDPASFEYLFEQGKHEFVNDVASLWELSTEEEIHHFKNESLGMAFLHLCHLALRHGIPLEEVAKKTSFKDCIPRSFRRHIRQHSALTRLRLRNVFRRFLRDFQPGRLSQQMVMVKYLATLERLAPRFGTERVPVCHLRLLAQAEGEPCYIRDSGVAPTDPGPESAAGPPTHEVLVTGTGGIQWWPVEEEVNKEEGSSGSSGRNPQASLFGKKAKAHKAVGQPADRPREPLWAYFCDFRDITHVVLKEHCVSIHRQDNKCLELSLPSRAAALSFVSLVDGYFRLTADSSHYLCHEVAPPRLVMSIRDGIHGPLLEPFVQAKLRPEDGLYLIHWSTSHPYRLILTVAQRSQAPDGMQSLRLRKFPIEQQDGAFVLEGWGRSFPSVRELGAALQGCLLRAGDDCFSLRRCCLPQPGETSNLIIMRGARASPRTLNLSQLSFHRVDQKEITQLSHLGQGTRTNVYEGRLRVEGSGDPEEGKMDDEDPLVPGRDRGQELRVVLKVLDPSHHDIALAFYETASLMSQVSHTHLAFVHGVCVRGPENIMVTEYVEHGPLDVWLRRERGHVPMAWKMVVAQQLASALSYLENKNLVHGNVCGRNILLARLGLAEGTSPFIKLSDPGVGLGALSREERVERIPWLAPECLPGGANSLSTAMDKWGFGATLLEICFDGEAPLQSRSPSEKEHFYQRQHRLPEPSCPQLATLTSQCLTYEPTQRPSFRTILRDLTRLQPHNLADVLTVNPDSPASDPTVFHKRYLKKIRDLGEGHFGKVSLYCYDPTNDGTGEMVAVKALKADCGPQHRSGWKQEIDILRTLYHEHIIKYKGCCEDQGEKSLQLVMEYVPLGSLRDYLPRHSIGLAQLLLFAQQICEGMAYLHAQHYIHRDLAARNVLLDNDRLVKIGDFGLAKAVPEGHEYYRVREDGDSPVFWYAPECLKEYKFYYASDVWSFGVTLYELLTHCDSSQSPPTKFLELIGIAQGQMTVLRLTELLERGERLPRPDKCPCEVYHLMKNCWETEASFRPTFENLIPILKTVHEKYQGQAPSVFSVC
JAK 2, sequence (O60674 whole entry): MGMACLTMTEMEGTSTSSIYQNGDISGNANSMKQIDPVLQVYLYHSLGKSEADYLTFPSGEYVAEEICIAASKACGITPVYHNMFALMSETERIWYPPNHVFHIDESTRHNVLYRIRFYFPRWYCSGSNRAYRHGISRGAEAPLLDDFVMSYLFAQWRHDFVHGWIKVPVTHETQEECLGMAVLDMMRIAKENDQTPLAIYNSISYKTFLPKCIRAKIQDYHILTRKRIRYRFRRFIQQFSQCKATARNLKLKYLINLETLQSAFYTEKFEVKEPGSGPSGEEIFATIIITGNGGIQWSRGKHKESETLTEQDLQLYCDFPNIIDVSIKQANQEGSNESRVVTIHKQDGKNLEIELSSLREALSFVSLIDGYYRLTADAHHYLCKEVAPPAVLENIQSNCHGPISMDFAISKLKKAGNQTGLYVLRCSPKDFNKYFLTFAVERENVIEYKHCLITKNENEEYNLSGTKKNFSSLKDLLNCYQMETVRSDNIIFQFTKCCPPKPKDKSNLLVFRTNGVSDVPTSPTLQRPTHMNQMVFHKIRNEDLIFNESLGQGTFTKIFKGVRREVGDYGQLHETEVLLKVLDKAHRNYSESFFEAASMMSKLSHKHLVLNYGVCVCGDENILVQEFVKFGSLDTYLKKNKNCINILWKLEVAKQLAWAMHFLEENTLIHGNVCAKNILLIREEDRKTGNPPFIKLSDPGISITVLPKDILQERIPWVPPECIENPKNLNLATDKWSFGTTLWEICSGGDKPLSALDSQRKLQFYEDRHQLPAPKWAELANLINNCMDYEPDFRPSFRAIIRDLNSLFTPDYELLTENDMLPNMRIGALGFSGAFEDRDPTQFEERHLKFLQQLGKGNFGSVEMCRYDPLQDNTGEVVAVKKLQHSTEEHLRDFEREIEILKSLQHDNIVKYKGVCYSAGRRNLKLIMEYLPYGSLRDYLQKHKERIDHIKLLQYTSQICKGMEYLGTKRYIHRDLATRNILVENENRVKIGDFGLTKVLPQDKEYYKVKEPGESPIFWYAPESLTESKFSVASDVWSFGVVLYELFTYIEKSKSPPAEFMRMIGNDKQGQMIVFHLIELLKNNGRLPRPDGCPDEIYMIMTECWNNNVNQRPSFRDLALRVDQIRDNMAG

IC50 [1] | IC50 [2] | IC50 [3] | IC50 [4] | SMILES
≤ 5.01 nM | ≤ 5.01 nM | ≤ 5.01 nM | 5.01 to 50.1 nM | CCCS(=O)(=O)Nc1ccc(-n2nc(C)c3cnc(-c4cnn5cccnc45)cc32)c(OC)c1 [Example 4, N-(3-methoxy-4-(3-methyl-6-(pyrazolo[1,5-a]pyrimidin-3-yl)-1H-pyrazolo[4,3-c]pyridin-1-yl)phenyl)propane-1-sulfonamide]
≤ 5.01 nM | ≤ 5.01 nM | ≤ 5.01 nM | 5.01 to 50.1 nM | CCCS(=O)(=O)Nc1ccc(-n2nc(NCCN3CCCCC3)c3cnc(Nc4ncc[nH]c4=O)cc32)c(OC)c1 [Example 88, N-(3-methoxy-4-(6-((3-oxo-3,4-dihydropyrazin-2-yl)amino)-3-((2-(piperidin-1-yl)ethyl)amino)-1H-pyrazolo[4,3-c]pyridin-1-yl)phenyl)propane-1-sulfonamide]
≤ 5.01 nM | ≤ 5.01 nM | ≤ 5.01 nM | 5.01 to 50.1 nM | CCCS(=O)(=O)Nc1ccc(-n2nc(NCCN3CCOCC3)c3cnc(Nc4ncc[nH]c4=O)cc32)c(OC(F)F)c1 [Example 89, N-(3-(difluoromethoxy)-4-(3-((2-morpholinoethyl)amino)-6-((3-oxo-3,4-dihydropyrazin-2-yl)amino)-1H-pyrazolo[4,3-c]pyridin-1-yl)phenyl)propane-1-sulfonamide]

More lines, now with the values behind:

SMILES | IC50 [1] | IC50 [2] | IC50 [3] | IC50 [4]
CNC(=O)Nc1ccc(-n2nc(C)c3cnc(-c4cnn5cccnc45)cc32)c(OC)c1 [Example 18, 1-(3-methoxy-4-(3-methyl-6-(pyrazolo[1,5-a]pyrimidin-3-yl)-1H-pyrazolo[4,3-c]pyridin-1-yl)phenyl)-3-methylurea] | 5.01 to 50.1 nM | 5.01 to 50.1 nM | 5.01 to 50.1 nM | > 50.1 nM
CNCC(=O)Nc1nn(-c2ccc(NS(C)(=O)=O)cc2OC)c2cc(-c3cnn4cccnc34)ncc12 [Example 80, N-(1-(2-methoxy-4-(methylsulfonamido)phenyl)-6-(pyrazolo[1,5-a]pyrimidin-3-yl)-1H-pyrazolo[4,3-c]pyridin-3-yl)-2-(methylamino)acetamide] | ≤ 5.01 nM | ≤ 5.01 nM | ≤ 5.01 nM | 5.01 to 50.1 nM
COCCN1CCC(CNc2nn(-c3ccc(NS(C)(=O)=O)cc3OC)c3cc(-c4cnn5cccnc45)ncc23)CC1 [Example 27, N-(3-methoxy-4-(3-(((1-(2-methoxyethyl)piperidin-4-yl)methyl)amino)-6-(pyrazolo[1,5-a]pyrimidin-3-yl)-1H-pyrazolo[4,3-c]pyridin-1-yl)phenyl)methanesulfonamide] | ≤ 5.01 nM | ≤ 5.01 nM | ≤ 5.01 nM | 5.01 to 50.1 nM
COc1cc(NS(=O)(=O)C2CC2)cnc1-n1nc(NCCN(C)C)c2cnc(-c3cnn4cccnc34)cc21 [Example 29, N-(6-(3-((2-(dimethylamino)ethyl)amino)-6-(pyrazolo[1,5-a]pyrimidin-3-yl)-1H-pyrazolo[4,3-c]pyridin-1-yl)-5-methoxypyridin-3-yl)cyclopropanesulfonamide] | 5.01 to 50.1 nM | 5.01 to 50.1 nM | 5.01 to 50.1 nM | > 50.1 nM
COc1cc(NS(C)(=O)=O)ccc1-n1nc(NCCN2C3CCC2COC3)c2cnc(-c3cnn4cccnc34)cc21 [Example 30, N-(4-(3-((2-(3-oxa-8-azabicyclo[3.2.1]octan-8-yl)ethyl)amino)-6-(pyrazolo[1,5-a]pyrimidin-3-yl)-1H-pyrazolo[4,3-c]pyridin-1-yl)-3-methoxyphenyl)methanesulfonamide] | ≤ 5.01 nM | ≤ 5.01 nM | ≤ 5.01 nM | 5.01 to 50.1 nM
COc1cc(NS(C)(=O)=O)ccc1-n1nc(C(=O)NCCCN(C)C)c2cnc(-c3cnn4cccnc34)cc21 [Example 43, N-(3-(dimethylamino)propyl)-1-(2-methoxy-4-(methylsulfonamido)phenyl)-6-(pyrazolo[1,5-a]pyrimidin-3-yl)-1H-pyrazolo[4,3-c]pyridine-3-carboxamide] | ≤ 5.01 nM | ≤ 5.01 nM | 5.01 to 50.1 nM | 5.01 to 50.1 nM

From US20240209001A1, “HETEROCYCLIC DERIVATIVES AS JANUS KINASE INHIBITORS” (CHIESI FARMACEUTICI S.P. A., priority 2021, published 2024)
